Assay results as given in PMC5336358, “Origin and evolution of transporter substrate specificity within the NPF family” (eLife, 2017).

How the values were obtained:
[1] = target: T1, Me14G074000 (Manihot esculenta, UniProt A0A2C9ULI5); experiment: oocyte uptake, LC-MS; assay type: cell-based; details: 0.2 mM substrate, pH 5, 60 min
T1 construct: gene MANES_14G074000v8; full-length untagged, codon-optimized cRNA in Xenopus laevis oocytes; primer encodes N-term MATGETI

[2] = target: T2, BrGTR1 (BrF01711) (Brassica rapa, UniProt A0A8D9DAH7); experiment: oocyte uptake, LC-MS; TEVC currents; assay type: cell-based; details: […] substrate, pH […] min
T2 construct: gene BRAPAZ1V2_A06P20680.2; full-length untagged, codon-optimized cRNA in Xenopus laevis oocytes; primer encodes N-term MERKPFE
T2 sequence (A0A8D9DAH7 1-615): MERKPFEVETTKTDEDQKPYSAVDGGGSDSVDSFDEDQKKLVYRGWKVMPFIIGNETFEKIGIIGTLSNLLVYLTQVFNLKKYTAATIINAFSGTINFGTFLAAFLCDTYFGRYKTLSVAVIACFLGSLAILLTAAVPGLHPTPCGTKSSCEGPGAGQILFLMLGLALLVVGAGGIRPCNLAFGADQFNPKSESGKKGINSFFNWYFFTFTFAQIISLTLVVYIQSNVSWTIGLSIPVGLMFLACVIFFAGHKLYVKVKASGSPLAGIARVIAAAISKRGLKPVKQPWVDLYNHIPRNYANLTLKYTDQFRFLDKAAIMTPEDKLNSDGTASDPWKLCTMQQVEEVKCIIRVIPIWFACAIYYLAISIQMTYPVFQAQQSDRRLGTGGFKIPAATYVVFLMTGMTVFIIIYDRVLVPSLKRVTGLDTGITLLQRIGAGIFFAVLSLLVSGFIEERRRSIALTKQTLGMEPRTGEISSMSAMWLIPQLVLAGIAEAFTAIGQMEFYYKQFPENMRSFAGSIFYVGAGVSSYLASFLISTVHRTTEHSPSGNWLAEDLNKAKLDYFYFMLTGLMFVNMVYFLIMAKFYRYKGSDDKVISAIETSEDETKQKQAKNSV

[3] = tested on: T3, CpGTRL2 (Cp17.190); experiment: TEVC currents in Xenopus oocytes, Michaelis-Menten fit; assay type: cell-based, Carica papaya; details: pH 5, -60 mV membrane potential
T3 construct: full-length untagged, codon-optimized cRNA in Xenopus laevis oocytes; primer encodes N-term MEMDGKE

[4] = target: T4, BrGTR3 (BrH02396) (Brassica rapa, UniProt A0A397YP93); experiment: oocyte uptake, LC-MS; TEVC currents; assay type: cell-based; details: […] substrate, pH […] min
T4 construct: gene BRARA_H02396; full-length untagged, codon-optimized cRNA in Xenopus laevis oocytes; primer encodes N-term MEVEKTQE
T4 sequence (A0A397YP93 1-591): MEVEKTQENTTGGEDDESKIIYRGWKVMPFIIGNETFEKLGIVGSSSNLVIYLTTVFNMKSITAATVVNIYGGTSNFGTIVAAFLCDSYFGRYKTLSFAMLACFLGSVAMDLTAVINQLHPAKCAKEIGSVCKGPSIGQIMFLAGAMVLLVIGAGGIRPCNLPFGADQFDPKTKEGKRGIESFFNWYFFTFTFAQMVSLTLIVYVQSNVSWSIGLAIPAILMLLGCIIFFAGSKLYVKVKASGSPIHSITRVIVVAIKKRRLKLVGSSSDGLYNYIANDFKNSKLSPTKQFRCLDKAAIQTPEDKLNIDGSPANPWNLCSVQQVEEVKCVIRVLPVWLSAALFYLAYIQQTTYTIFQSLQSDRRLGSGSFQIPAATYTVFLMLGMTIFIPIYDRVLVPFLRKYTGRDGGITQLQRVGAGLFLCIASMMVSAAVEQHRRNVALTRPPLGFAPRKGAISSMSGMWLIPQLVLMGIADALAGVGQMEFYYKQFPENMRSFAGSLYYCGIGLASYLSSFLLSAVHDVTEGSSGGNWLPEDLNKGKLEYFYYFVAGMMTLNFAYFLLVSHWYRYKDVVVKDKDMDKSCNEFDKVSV

[5] = target: T5, GTR3 (NPF2.9, At1g18880) (Arabidopsis thaliana, UniProt Q9M9V7); experiment: TEVC currents in Xenopus oocytes, Michaelis-Menten fit; assay type: cell-based; details: pH 5, -60 mV membrane potential
T5 construct: full-length untagged, cRNA in Xenopus laevis oocytes
T5 sequence (Q9M9V7 1-587): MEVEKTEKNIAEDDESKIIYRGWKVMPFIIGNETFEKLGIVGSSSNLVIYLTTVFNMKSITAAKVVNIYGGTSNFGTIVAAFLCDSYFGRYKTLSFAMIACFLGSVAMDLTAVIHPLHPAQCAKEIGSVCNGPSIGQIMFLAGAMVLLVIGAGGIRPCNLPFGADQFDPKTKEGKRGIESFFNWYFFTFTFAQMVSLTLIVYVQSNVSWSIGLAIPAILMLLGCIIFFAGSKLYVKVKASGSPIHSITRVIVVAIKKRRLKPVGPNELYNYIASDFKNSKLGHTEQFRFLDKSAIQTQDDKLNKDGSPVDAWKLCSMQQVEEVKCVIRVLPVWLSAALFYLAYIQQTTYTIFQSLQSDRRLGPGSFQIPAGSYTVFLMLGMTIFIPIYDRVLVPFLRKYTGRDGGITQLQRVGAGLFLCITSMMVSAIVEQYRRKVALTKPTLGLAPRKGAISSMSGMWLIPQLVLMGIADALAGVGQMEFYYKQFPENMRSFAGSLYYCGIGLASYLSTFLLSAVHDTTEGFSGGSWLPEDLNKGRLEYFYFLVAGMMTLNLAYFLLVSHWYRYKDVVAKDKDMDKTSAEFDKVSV

[6] = target: T6, GTR1 (AtGTR1, NPF2.10) (Arabidopsis thaliana, UniProt Q944G5); experiment: as above; assay type: cell-based; details: pH 5, -60 mV membrane potential
T6 construct: full-length untagged, cRNA in Xenopus laevis oocytes
T6 sequence (Q944G5 1-636): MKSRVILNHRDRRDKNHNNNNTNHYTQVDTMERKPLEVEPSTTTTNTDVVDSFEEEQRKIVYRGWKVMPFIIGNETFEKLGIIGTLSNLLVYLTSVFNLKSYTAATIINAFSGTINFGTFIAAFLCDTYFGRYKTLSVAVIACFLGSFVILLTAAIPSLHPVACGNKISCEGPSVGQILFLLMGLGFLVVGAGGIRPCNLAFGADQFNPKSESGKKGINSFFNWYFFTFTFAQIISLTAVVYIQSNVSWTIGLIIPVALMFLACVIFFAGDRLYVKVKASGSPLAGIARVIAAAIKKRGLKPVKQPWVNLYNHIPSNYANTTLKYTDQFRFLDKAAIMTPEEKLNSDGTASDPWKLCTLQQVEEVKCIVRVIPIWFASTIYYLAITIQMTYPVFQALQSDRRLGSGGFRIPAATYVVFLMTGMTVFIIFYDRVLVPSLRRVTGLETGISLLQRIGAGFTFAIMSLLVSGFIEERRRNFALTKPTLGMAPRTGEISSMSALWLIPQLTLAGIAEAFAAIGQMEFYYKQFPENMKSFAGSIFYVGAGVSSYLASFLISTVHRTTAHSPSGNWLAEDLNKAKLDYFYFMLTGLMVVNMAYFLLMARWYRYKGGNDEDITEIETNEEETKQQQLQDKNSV

[7] = target: T7, GTR2 (AtGTR2, NPF2.11) (Arabidopsis thaliana, UniProt Q9LV10); experiment: as above; assay type: cell-based; details: pH 5, -60 mV membrane potential
T7 construct: full-length untagged, cRNA in Xenopus laevis oocytes
T7 sequence (Q9LV10 1-616): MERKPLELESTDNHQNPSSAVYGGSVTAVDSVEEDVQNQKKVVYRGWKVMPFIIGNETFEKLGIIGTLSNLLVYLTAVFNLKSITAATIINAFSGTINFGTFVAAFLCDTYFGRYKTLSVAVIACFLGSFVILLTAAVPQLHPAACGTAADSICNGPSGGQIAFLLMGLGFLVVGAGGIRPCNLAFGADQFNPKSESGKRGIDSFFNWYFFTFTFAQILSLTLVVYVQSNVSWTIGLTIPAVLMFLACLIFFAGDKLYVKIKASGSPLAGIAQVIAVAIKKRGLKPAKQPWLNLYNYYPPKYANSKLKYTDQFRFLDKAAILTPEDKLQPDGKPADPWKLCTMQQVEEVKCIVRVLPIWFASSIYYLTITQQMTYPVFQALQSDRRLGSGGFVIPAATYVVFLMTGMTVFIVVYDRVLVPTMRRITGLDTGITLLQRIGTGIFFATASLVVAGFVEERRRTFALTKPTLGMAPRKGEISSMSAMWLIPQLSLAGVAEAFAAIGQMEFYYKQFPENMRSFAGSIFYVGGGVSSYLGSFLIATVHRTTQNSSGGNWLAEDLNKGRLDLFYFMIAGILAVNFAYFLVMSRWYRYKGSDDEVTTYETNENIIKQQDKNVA

[8] = target: T8, Me15G176100 (Manihot esculenta, UniProt A0A2C9UH66); experiment: oocyte uptake, LC-MS; assay type: cell-based; details: 0.2 mM substrate, pH 5, 60 min
T8 construct: gene MANES_15G175484v8; full-length untagged, codon-optimized cRNA in Xenopus laevis oocytes; primer encodes N-term MEDKEEKS

[9] = substrate: CC(C)(C#N)O[C@@H]1O[C@H](CO)[C@@H](O)[C@H](O)[C@H]1O; experiment: TEVC currents in Xenopus oocytes, Michaelis-Menten fit; assay type: cell-based, Manihot esculenta; details: pH 5, -60 mV membrane potential
[10] = substrate: N#C[C@H](O[C@@H]1O[C@H](CO)[C@@H](O)[C@H](O)[C@H]1O)c1ccccc1; experiment: as above; assay type: cell-based, Manihot esculenta; details: pH 5, -60 mV membrane potential

T1 sequence (A0A2C9ULI5 entry or part of it): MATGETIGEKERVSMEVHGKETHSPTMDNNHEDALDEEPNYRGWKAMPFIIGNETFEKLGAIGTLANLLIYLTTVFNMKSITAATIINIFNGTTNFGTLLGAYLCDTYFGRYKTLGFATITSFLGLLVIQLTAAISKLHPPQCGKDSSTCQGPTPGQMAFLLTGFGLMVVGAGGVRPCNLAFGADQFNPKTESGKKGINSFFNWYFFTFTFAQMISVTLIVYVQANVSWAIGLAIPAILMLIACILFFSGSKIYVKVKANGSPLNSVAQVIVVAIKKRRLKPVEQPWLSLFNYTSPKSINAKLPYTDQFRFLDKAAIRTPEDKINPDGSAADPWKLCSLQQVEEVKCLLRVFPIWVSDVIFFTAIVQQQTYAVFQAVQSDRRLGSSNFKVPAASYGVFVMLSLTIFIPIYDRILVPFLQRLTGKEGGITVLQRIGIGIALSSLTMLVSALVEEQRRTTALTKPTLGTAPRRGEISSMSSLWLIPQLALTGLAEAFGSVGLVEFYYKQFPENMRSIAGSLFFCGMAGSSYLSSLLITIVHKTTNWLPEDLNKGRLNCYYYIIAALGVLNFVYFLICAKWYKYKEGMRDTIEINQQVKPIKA
T8 sequence (A0A2C9UH66 entry or part of it): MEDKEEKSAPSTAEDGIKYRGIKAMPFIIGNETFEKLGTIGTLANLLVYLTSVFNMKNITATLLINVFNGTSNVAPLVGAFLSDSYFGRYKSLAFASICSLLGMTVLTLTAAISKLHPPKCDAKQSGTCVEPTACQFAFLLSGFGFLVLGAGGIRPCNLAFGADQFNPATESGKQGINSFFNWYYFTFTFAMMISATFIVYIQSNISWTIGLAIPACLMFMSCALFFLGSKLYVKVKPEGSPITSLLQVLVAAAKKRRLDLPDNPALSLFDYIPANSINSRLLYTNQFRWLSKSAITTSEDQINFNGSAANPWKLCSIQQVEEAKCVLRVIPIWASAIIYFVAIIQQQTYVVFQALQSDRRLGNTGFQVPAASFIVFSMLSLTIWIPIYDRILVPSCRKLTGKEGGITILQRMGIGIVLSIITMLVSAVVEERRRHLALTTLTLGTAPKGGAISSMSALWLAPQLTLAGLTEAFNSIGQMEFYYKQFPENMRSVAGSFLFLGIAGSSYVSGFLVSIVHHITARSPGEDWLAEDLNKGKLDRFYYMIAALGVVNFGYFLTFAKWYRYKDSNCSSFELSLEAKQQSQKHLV

## CSCCCC/C(=N/OS(=O)(=O)O)S[C@@H]1O[C@H](CO)[C@@H](O)[C@H](O)[C@H]1O [4MTB, 4-methylthiobutyl glucosinolate]
[1]
  oocyte uptake, LC-MS: Me14G074000 from cassava over-accumulated both 4MTB and I3M relative to external media
[2]
  oocyte uptake, LC-MS; TEVC currents: BrGTR1 ortholog (BrF01711) transported 4MTB and I3M with similar efficiency
[3]
  Km: 85 ± 12 µM

## O=S(=O)(O)O/N=C(/Cc1c[nH]c2ccccc12)S[C@@H]1O[C@H](CO)[C@@H](O)[C@H](O)[C@H]1O [I3M, indol-3-yl-methyl glucosinolate]
[4]
  oocyte uptake, LC-MS; TEVC currents: strong preference for I3M by the tested BrGTR3 ortholog (BrH02396)
[2]
  oocyte uptake, LC-MS; TEVC currents: BrGTR1 ortholog (BrF01711) transported 4MTB and I3M with similar efficiency
[5]
  Km: < 25 µM
[6]
  Km: < 25 µM
[7]
  Km: < 25 µM

## N#C[C@H](O[C@@H]1O[C@H](CO)[C@@H](O)[C@H](O)[C@H]1O)c1ccccc1 [prunasin]
[1]
  oocyte uptake, LC-MS: Me14G074000 from cassava accumulated prunasin, but not linamarin, to levels equivalent to media
[8]
  oocyte uptake, LC-MS: Uptake of prunasin was detected in oocytes expressing Me15G176100

B1: MeCGTR1 (Me15G180400) (Manihot esculenta) (protein)
chain: MENGNDHAQDQQKSIEKDEEPVINYRGIKAMPFIIGNETFEKLGTVGSSTNLVVYLNTVFNLKSVTATTLVNIFNGTTNLAPLLGAFLCDTYFGRYKTLGFASVASFLGMSALALTAAVPTLHPPKCVGKESSQCVGPSIWQLAFLLCGFGLIAIGAGGIRPCNLAFGAEQFNPNTESGKRGMSSFFNWYYFTYTFAVMVSVTGIVYVQSDVSWAIGLAIPAFLMFLSCAVFFIGTKIYVIVKPEGSPITSVVQVLVVSVKKRGLKLPQNPAVSLFNYVPAKSINSRLSHTEQFSFLDKAAIVTEKDEINLDGSAANPWRLCSIQQVEEVKCMVRIIPIWASAIIYHVPLIQQQTYAVLQALQLDRRLGTGSFEIPAATFIIFTMLALTIWIPIYDRILVPFLQRLTGKEGGFTLLQRMGIGILLSVLCMFVSGLVESHRRDIALSKPTLGISPKGGAVSSMTWLWLVPQLALAGLSEGFNYVSQIEFYYKQFPENMRSIAGSSFFAGLALANFLSGLLVSTIHKITSATKSGDWLSEDLNKGKLDHFYYVIGVLGTVNMAYFLLCAKWYRYKVREDDGSVEMSNKSSVKHHV
notes: full-length untagged, codon-optimized cRNA in Xenopus laevis oocytes (pNB1u); primer encodes N-term MENGNDH
[9]
  Km: 262 ± 15 µM
[10]
  Km: 80 ± 7 µM
